# Values quoted from earlier work as cited in patent US20230045688A1 (priority 2020, published 2023).
# System: SARS-CoV
# Conditions: disruption of oligosaccharide formation; Vincent et al. 2005; Savarino et al. 2006
smiles,measurement,value
CCN(CC)CCCC(C)Nc1ccnc2cc(Cl)ccc12 (stereo not shown) [chloroquine],SARS-CoV infectivity,significantly decreases SARS-CoV infectivity
